Molecules are shown by their SMILES.

In the experiment the target is PIK3CG (human) (UniProt P48736). The experiment can be described thus: Assessment of PIK3CG Kinase Activity.
PIK3CG (human), sequence (P48736 whole entry, looked up): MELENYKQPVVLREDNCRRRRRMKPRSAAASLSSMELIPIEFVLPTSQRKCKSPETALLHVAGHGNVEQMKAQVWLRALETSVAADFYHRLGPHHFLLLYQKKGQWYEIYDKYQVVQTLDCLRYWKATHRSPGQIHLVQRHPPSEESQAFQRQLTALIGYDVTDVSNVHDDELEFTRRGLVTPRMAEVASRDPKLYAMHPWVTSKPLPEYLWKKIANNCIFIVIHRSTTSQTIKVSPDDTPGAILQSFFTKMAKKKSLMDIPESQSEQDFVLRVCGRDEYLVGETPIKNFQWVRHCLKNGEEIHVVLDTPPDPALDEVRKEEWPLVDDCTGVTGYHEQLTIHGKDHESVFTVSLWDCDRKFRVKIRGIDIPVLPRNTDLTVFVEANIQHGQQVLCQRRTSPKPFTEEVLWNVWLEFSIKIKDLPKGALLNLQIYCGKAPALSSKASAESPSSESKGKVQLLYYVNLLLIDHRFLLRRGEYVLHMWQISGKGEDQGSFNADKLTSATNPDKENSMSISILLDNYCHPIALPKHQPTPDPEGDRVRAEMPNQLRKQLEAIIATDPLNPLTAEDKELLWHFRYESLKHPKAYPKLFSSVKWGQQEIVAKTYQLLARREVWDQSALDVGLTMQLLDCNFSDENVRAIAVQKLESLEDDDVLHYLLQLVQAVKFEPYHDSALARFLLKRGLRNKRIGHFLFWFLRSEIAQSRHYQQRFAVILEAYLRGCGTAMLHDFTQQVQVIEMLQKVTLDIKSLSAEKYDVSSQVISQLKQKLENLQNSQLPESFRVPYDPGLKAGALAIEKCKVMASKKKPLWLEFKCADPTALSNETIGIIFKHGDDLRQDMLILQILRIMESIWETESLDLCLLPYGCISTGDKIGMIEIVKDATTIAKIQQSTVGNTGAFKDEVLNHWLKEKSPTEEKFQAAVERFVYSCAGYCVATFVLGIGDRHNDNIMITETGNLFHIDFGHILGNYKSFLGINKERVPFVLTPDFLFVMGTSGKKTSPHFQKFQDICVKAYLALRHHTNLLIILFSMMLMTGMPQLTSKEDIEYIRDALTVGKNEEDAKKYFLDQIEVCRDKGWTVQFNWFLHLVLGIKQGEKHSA
Take `O=C(NCc1ccn[nH]1)Nc1nc2c(s1)-c1nc(-c3ccccc3Cl)ncc1CC2`: the IC50 (commonly the point on the concentration scale where inhibition reaches its midpoint) is less than 800 nM.

The compound `O=C(Nc1nc2c(s1)-c1nc(-c3ccccc3Cl)ncc1CC2)N1CC[C@H](NC(=O)C(F)(F)F)C1` gave an IC50 of less than 800 nM.

For `CS(=O)(=O)Nc1cccc(CNC(=O)Nc2nc3c(s2)-c2nc(-c4ccccc4Cl)ncc2CC3)c1`, the IC50 was less than 800 nM.

`CC(C)c1noc(CCNC(=O)Nc2nc3c(s2)-c2nc(-c4ccccc4Cl)ncc2CC3)n1` gave an IC50 of less than 800 nM.

Turning to `CNC(=O)Nc1nc2c(s1)-c1nc(-c3cccc(F)c3Cl)ncc1CC2`, the IC50 was less than 800 nM.

Compound `CC(C)(C)CNC(=O)Nc1nc2c(s1)-c1nc(-c3ccccc3Cl)ncc1CC2` came in with an IC50 of less than 800 nM.

Compound `CCn1cnc(CCNC(=O)Nc2nc3c(s2)-c2nc(-c4ccccc4Br)ncc2CC3)c1` returned an IC50 of less than 800 nM.

For `CCc1nnc(CCNC(=O)Nc2nc3c(s2)-c2nc(-c4ccccc4Br)ncc2CC3)o1`, the IC50 is less than 800 nM.

Compound `O=C1CCC(NC(=O)Nc2nc3c(s2)-c2nc(-c4ccccc4Cl)ncc2CC3)C(c2ccccc2)N1` (stereo unspecified) yielded an IC50 of less than 800 nM.

`Cn1cccc1CCNC(=O)Nc1nc2c(s1)-c1nc(-c3ccccc3Cl)ncc1CC2`: the IC50 is less than 800 nM.

`O=C(Nc1ccccc1)Nc1nc2c(s1)-c1nc(-c3ccccc3Cl)ncc1CC2` displayed an IC50 of less than 800 nM.

`Cc1ccc(CN2CC(CNC(=O)Nc3nc4c(s3)-c3nc(-c5ccccc5Cl)ncc3CC4)CC2=O)cc1` (stereo unspecified) came in with an IC50 of less than 800 nM.

In the case of `CC(C)c1cnc(CCNC(=O)Nc2nc3c(s2)-c2nc(-c4ccccc4Br)ncc2CC3)o1`, the IC50 is less than 800 nM.

Compound `CC(C)OC(=O)N[C@@H]1CCN(C(=O)Nc2nc3c(s2)-c2nc(-c4ccccc4Cl)ncc2CC3)C1` showed an IC50 of less than 800 nM.

For `CC(C)(C)CNC(=O)CCNC(=O)Nc1nc2c(s1)-c1nc(-c3ccccc3Cl)ncc1CC2`, the IC50 is less than 800 nM.

The compound `Cn1nc(CNC(=O)Nc2nc3c(s2)-c2nc(-c4ccccc4Cl)ncc2CC3)cc1O` showed an IC50 of less than 800 nM.

Take `CC(C)c1nnc(CCNC(=O)Nc2nc3c(s2)-c2nc(-c4ccccc4F)ncc2CC3)o1`: the IC50 was less than 800 nM.

Regarding `CC(C)N(C)C(=O)N[C@H]1CCN(C(=O)Nc2nc3c(s2)-c2nc(-c4ccccc4Cl)ncc2CC3)C1`, the IC50 was less than 800 nM.

`CC(C)(CNc1ncccn1)NC(=O)Nc1nc2c(s1)-c1nc(-c3ccccc3Cl)ncc1CC2` displayed an IC50 of less than 800 nM.

Regarding `CN(C)CCN(C)C(=O)Nc1nc2c(s1)-c1nc(-c3ccccc3Cl)ncc1CC2`, the IC50 is less than 800 nM.

Turning to `O=C(NCC1CCCN(c2ncccn2)C1)Nc1nc2c(s1)-c1nc(-c3ccccc3Cl)ncc1CC2` (stereo unspecified), the IC50 was less than 800 nM.

With `Cc1nc2ccccc2n1CC(C)(C)NC(=O)Nc1nc2c(s1)-c1nc(-c3ccccc3Cl)ncc1CC2`, the IC50 is less than 800 nM.

Regarding `CC(C)N(C)C(=O)c1cccc(CNC(=O)Nc2nc3c(s2)-c2nc(-c4ccccc4Cl)ncc2CC3)c1`, the IC50 is less than 800 nM.

As to `Cn1cc(CNC(=O)Nc2nc3c(s2)-c2nc(-c4ccccc4F)ncc2CC3)cn1`, the concentration for half-maximal inhibition (IC50) is less than 800 nM.

Turning to `CN(C)C(=O)c1cccc(CNC(=O)Nc2nc3c(s2)-c2nc(-c4ccccc4Cl)ncc2CC3)c1`, the IC50 is less than 800 nM.

Regarding `O=C(NCc1ccc(CN2CCNC2=O)cc1)Nc1nc2c(s1)-c1nc(-c3ccccc3Cl)ncc1CC2`, the IC50 is less than 800 nM.

Compound `O=C(NCc1ccccc1)Nc1nc2c(s1)-c1nc(-c3ccccc3Cl)ncc1CC2` had an IC50 of less than 800 nM.

`O=C(Nc1nc2c(s1)-c1nc(-c3ccccc3Cl)ncc1CC2)N1CCC(c2c[nH]c3ccccc23)CC1` showed an IC50 of less than 800 nM.

For `O=C(NCc1cccs1)Nc1nc2c(s1)-c1nc(-c3ccccc3Cl)ncc1CC2`, the IC50 is less than 800 nM.

Compound `COc1ccccc1C1CCN(C(=O)Nc2nc3c(s2)-c2nc(-c4ccccc4Cl)ncc2CC3)C1` (stereo unspecified) displayed an IC50 of less than 800 nM.

`O=C(NCCC(=O)N1CCCC1)Nc1nc2c(s1)-c1nc(-c3ccccc3Cl)ncc1CC2` came in with an IC50 of less than 800 nM.

For the compound `CCc1csc(CCNC(=O)Nc2nc3c(s2)-c2nc(-c4ccccc4Br)ncc2CC3)n1`, the IC50 was less than 800 nM.

Consider `CC(C)(C)OC(=O)N[C@H]1CC[C@H](CNC(=O)Nc2nc3c(s2)-c2nc(-c4ccccc4Cl)ncc2CC3)CC1`, for which the IC50 was less than 800 nM.

As to `CC(=O)Nc1cccc(CNC(=O)Nc2nc3c(s2)-c2nc(-c4ccccc4Cl)ncc2CC3)c1`, the IC50 was less than 800 nM.

`O=C(N[C@H]1CCN(C(=O)Nc2nc3c(s2)-c2nc(-c4ccccc4Cl)ncc2CC3)C1)C1CC1` gave an IC50 of less than 800 nM.

`O=C(NCCN1CCCC1)Nc1nc2c(s1)-c1nc(-c3ccccc3Cl)ncc1CC2` registered an IC50 of less than 800 nM.

`CC(C)CC(=O)Nc1cccc(CNC(=O)Nc2nc3c(s2)-c2nc(-c4ccccc4Cl)ncc2CC3)c1` showed an IC50 of less than 800 nM.

In turn, `CC(C)OC(=O)N[C@H]1CCN(C(=O)Nc2nc3c(s2)-c2nc(-c4ccccc4Cl)ncc2CC3)C1` returned an IC50 of less than 800 nM.

`CCc1csc(CCNC(=O)Nc2nc3c(s2)-c2nc(-c4ccccc4Cl)ncc2CC3)n1`: the IC50 was less than 800 nM.

Turning to `CC(C)(CNc1ccc(C(C)(C)C)cc1)NC(=O)Nc1nc2c(s1)-c1nc(-c3ccccc3Cl)ncc1CC2`, the IC50 is less than 800 nM.

For the compound `O=C(NCc1cccc(N2CCCC2=O)c1)Nc1nc2c(s1)-c1nc(-c3ccccc3Cl)ncc1CC2`, the IC50 was less than 800 nM.

As to `COc1cccc([C@@H](C)NC(=O)Nc2nc3c(s2)-c2nc(-c4ccccc4Cl)ncc2CC3)c1`, the IC50 was less than 800 nM.

Regarding `O=C(NCCc1ccc2c(c1)OCO2)Nc1nc2c(s1)-c1nc(-c3ccccc3Cl)ncc1CC2`, the IC50 was less than 800 nM.

Take `CC(C)(C)OC(=O)CCNC(=O)Nc1nc2c(s1)-c1nc(-c3ccccc3Br)ncc1CC2`: the IC50 was less than 800 nM.

Compound `CN(C)C(=O)Nc1nc2c(s1)-c1nc(C(C)(C)C)ncc1CC2` registered an IC50 of less than 800 nM.

`O=C(NCc1ccccc1N1CCCCC1)Nc1nc2c(s1)-c1nc(-c3ccccc3Cl)ncc1CC2` had an IC50 of less than 800 nM.

As to `CCN(CC)C(=O)N[C@H]1CCN(C(=O)Nc2nc3c(s2)-c2nc(-c4ccccc4Cl)ncc2CC3)C1`, the IC50 is less than 800 nM.

With `CCOCCNC(=O)Nc1nc2c(s1)-c1nc(-c3ccccc3Cl)ncc1CC2`, the IC50 is less than 800 nM.

For `CC(C)C(=O)Nc1cccc(CNC(=O)Nc2nc3c(s2)-c2nc(-c4ccccc4Cl)ncc2CC3)c1`, the IC50 is less than 800 nM.

Turning to `O=C(NC[C@H]1CCCN1)Nc1nc2c(s1)-c1nc(-c3ccccc3Cl)ncc1CC2`, the IC50 is less than 800 nM.

The compound `O=C(Nc1ccc(N2CCNCC2)cc1)Nc1nc2c(s1)-c1nc(-c3ccccc3Cl)ncc1CC2` yielded an IC50 of less than 800 nM.

These data come from the Kinase Knowledgebase extract (Sharma et al. 2016).
